Laboratory results reported in patent US20180021288A1, “Neuroprotection in Demyelinating Diseases” (Biogen MA Inc., priority 2010, published 2018).
Structures can show the parent of a compound that is named as a salt. Where two headings read alike, the source gives them in different places.

Legend:
MOG-EAE [1] = test: DMF/IFN-beta co-therapy in MOG-EAE (Examples 4 and 8); format: in vivo, mice; settings: DMF 15 mg/kg p.o.; for Incidence: FIG. 11, IFN-beta 10,000 U s.c. e.o.d; for mean clinical EAE score / clinical disease course: short-term course, IFN-beta 10,000 U s.c., FIG. 11, FIG. 15
MOG-EAE [2] = test: DMF/GA co-therapy during chronic MOG-EAE (Example 3); format: in vivo, mice; settings: for mean clinical EAE score during the chronic phase / onset of EAE symptoms: FIG. 4; for infiltration by T cells / number of infiltrating macrophages: chronic MOG-EAE; for infiltration by T cells: FIG. 7; for number of infiltrating macrophages: FIG. 8; for axonal loss and destruction: chronic phase, FIG. 9
Method: The treatment groups were as follows: 1) Mice immunized with 200 μg MOG/CFA (complete Freund's adjuvant)+200 ng PTX (pertussis toxin)+vehicle (methocel). 2) Mice immunized with 200 μg MOG/CFA and 50 μg GA+vehicle. […] Long term experiment: additional boost on day 28 p.i.

MOG-EAE [3] = test: Efficacy of DMF in chronic MOG-EAE (Example 1); format: in vivo, mouse
From the text: See also, Schilling et al., “Fumaric Acid Esters Are Effective in Chronic Experimental Autoimmune Encephalomyelitis and Supress Macrophage Infiltration,” Clinical and Experimental Immunology, Vol. 145, No. 1, pp. 101-107 (2006).

MOG-EAE [4] = test: DMF/GA co-therapy during short term (acute) course of MOG-EAE (Examples 3 and 8); format: in vivo, mice; settings: for macrophage/microglia in EAE lesions: day 26 p.i., FIG. 13; for Incidence: pooled data from three experiments
Method: The treatment groups were as follows:
1) Mice immunized with 200 μg MOG/CFA (complete Freund's adjuvant)+200 ng PTX (pertussis toxin)+vehicle (methocel).
2) Mice immunized with 200 μg MOG/CFA and 50 μg GA+vehicle.
In the acute disease phase (day 26 or day 18 p.i., respectively), parameters of inflammation as well as CNS tissue integrity were analyzed. To this end, 12 week wild-type or C57BL/6 mice were actively immunized with […] of MOG peptide 35-55 and pertussis toxin. On day 18 or 26 p.i., histochemistry was performed to identify T cells (CD3 immunohistochemistry), macrophages/microglia (Mac-3), demyelination (Luxol Fast Blue staining), and axonal loss (Bielschowsky silver impregnation). Histological changes were quantified by a blinded observer counting six visual fields on spinal cord cross sections comprising cervical, thoracic and lumbar spinal cord. Statistical evaluations were performed by Kruskal-Wallis test or t-test. ** p<0.01; *** p<0.001.

[5] = not given; remark: listed apart in the source
MOG-EAE [6] = settings: in vivo; cited from earlier work
MOG-EAE [7] = settings: 100 or 500 mcg glatiramer acetate co-injected with MOG antigen; FIG. 3
From the text: In this experiment mice were co-injected with glatiramer acetate and the MOG antigen. Specifically, a control group received MOG alone, while two experimental groups received doses of 100 or 500 mcg glatiramer acetate.

[8] = GA study, healthy volunteers, DMF 240 mg tid
[9] = FIG. 4, single experiment, GA 50 μg, DMF 15 mg/kgBW
[10] = FIG. 5, pooled data from two experiments (n=12 per group)
[11] = IFN-beta-1a study, healthy volunteers, DMF 240 mg tid

COC(=O)/C=C/C(=O)OC [DMF, Dimethyl fumarate]
Incidence (MOG-EAE [1]): 6/6 | mean clinical EAE score / clinical disease course (MOG-EAE [1]): exacerbated the EAE compared to the methocel controls | most common adverse events (GA study): flushing | new safety signals (GA study): no new safety signals | Any AE [8]: 84% | Diarrhea [8]: 8% | Flushing [8]: 76% | Headache [8]: 12% | Nausea [8]: 8% | Paresthesia [8]: 32% | Pruritus [8]: 28% | subjects discontinued due to adverse event (GA study, mild erythematous facial nodule (DMF alone), mild nausea (DMF+GA)): one | Influenza-like illness (human, in vivo): 0% | Incidence (MOG-EAE [2]; [9]): 6/6 | mean clinical EAE score during the chronic phase (MOG-EAE [2]; GA 50 μg, DMF 15 mg/kgBW): little if any effect | onset of EAE symptoms (MOG-EAE [2]; GA 50 μg, DMF 15 mg/kgBW): delayed | Incidence (MOG-EAE [2]; [10]): 9/12 | infiltration by T cells (MOG-EAE [2]): neither GA nor DMF reduces | number of infiltrating macrophages (MOG-EAE [2]): neither GA nor DMF alone does so | axonal loss and destruction (MOG-EAE [2]): reduce axonal loss and destruction | mean clinical score (MOG-EAE [3]; DMF 15 mg/kg twice daily via oral gavage, FIG. 1): reduced | T-cell infiltration (MOG-EAE [3]; mouse, in vivo): without suppressing | efficacy in chronic MOG-EAE (MOG-EAE [3]; mouse, in vivo): effective | macrophage infiltration (MOG-EAE [3]; mouse, in vivo): suppress | demyelination (MOG-EAE [3]; spinal cord tissue, FIG. 2B): reduced | macrophage/microglia in EAE lesions (MOG-EAE [4]): reduction of macrophage/microglia | macrophage/microglia in EAE lesions (MOG-EAE [4]; listed as DMF alone): efficiently reduces | Incidence (MOG-EAE [4]; short term course): 11/18 | mean clinical EAE score / clinical disease course (MOG-EAE [4]; short term course, FIG. 10A and 10B): greater than that of GA | most common adverse events ([5]; IFN-beta-1a study): flushing | new safety signals ([5]; IFN-beta-1a study): no new safety signals | Any AE [5, 11]: 71% | Diarrhea [5, 11]: 0% | Flushing [5, 11]: 50% | Headache [5, 11]: 13% | Nausea [5, 11]: 4% | Paresthesia [5, 11]: 21% | Pruritus [5, 11]: 4% | Influenza-like illness ([5]; human, in vivo): 0%

L-glutamic acid polymer with L-alanine, L-lysine and L-tyrosine, acetate (salt) [GA]
prevention of clinical and histological signs of EAE in combination with atorvastatin (MOG-EAE [6]): synergize with atorvastatin | Incidence (MOG-EAE [2]; [9]): 6/6 | mean clinical EAE score during the chronic phase (MOG-EAE [2]; GA 50 μg, DMF 15 mg/kgBW): intermediate effect | onset of EAE symptoms (MOG-EAE [2]; GA 50 μg, DMF 15 mg/kgBW): delayed | Incidence (MOG-EAE [2]; [10]): 11/12 | infiltration by T cells (MOG-EAE [2]): neither GA nor DMF reduces | number of infiltrating macrophages (MOG-EAE [2]): neither GA nor DMF alone does so | infiltrates (inflammatory index, HE staining of spinal cords) (MOG-EAE [2]; chronic disease phase, FIG. 6): reduces infiltrates | axonal loss and destruction (MOG-EAE [2]): reduce axonal loss and destruction | Incidence (MOG-EAE [4]; short term course): 13/18 | mean clinical score (MOG-EAE [7]): reduced the mean clinical score of the 100 or 500 mcg groups in a dose-dependent manner

B1: IFN-beta: murine interferon beta, 10,000 U s.c. (protein, UniProt P01575 22-182, looked up)
Interferon beta: INYKQLQLQERTNIRKCQELLEQLNGKINLTYRADFKIPMEMTEKMQKSYTAFAIQEMLQNVFLVFRNNFSSTGWNETIVVRLLDELHQQTVFLKTVLEEKQEERLTWEMSSTALHLKSYYWRVQRYLKLMKYNSYAWMVVRAEIFRNFLIIRRLTRNFQN
Incidence (MOG-EAE [1]): 5/6 | mean clinical EAE score / clinical disease course (MOG-EAE [1]): exacerbated the EAE compared to the methocel controls
